The source of these data is patent US7572770B2, “Use of an interleukin 1 receptor antagonist and/or pyrrolidinedithiocarbamate for the treatment or prophylaxis of type 2 diabetes” (University of Zurich, priority 2002, dated 2009).

The subject of experiment [1] is human islets β-cells. Nature of the experiment: β-cell apoptosis (TUNEL) and necrosis (propidium iodide) in human islets. In kind it is cell-based. Particulars: 4 days. How it is done: Islet isolation and culture. Islets were isolated from pancreases of eleven organ donors at the Department of Surgery, University of Geneva Medical Center, as described (32-34). The islet purity was >95%, as judged by dithizone staining (if this degree of purity was not primarily achieved by routine isolation, islets were handpicked). […] For long-term in vitro studies, the islets were cultured on extracellular matrix-coated plates derived from bovine corneal endothelial cells (Novamed Ltd., Jerusalem, Israel), allowing the cells to attach to the dishes and spread, preserving their functional integrity (7;35). Islets were cultured in CMRL 1066 medium containing 100 U/ml penicillin, 100 μg/ml streptomycin and 10% fetal calf serum (Gibco, Gaithersburg, Md.), hereinafter referred to as culture medium. Two days after plating, when most islets were attached and began to flatten, the medium was changed to culture medium containing 5.5, 11.1 or 33.3 mM glucose. In some experiments, islets were additionally cultured with 2 ng/ml recombinant human IL-1β, 1000 U/ml recombinant human IFNγ (ReproTech EC Ltd, London, UK), 500 ng/ml IL-1β receptor antagonist (IL-1Ra) (R&D Systems Inc., Minneapolis, Minn.), 1 ng/ml membrane bound Fas-ligand (FasL) (36) (upstate biotechnology, Lake Placid, N.Y.) or with 100 μM pyrrolidinedithiocarbamate (PDTC; Sigma; 2 h per 2 d of culture).
β-cell apoptosis. The free 3-OH strand breaks resulting from DNA degradation were detected by the terminal deoxynucleotidyl transferase-mediated dUTP nick-end labeling (TUNEL) technique (38). After washing with PBS, cultured islets were fixed in 4% paraformaldehyde (30 min, room temperature) followed by permeabilisation with 0.5% triton X-100 (4 min, room temperature). The TUNEL assay was performed according to the manufacturer's instructions (In Situ Cell Death Detection Kit, AP; Boehringer Mannheim, Germany). […] The samples were immediately evaluated by fluorescence microscopy for positively stained […] nuclei.

In experiment [2] the test system is IL-1Ra. Nature of the experiment: IL-1Ra expression and release in human islets. In kind it is cell-based. Particulars: for IL-1Ra released into the culture medium and IL-1Ra mRNA: 10 to 500 nM leptin. How it is done: Islet isolation and cell culture. Islets were isolated from pancreases of ten organ donors at the Department of Surgery, University of Geneva Medical Center, as described (32-34). The islet purity was >95%, as judged by dithizone staining (if this degree of purity was not primarily achieved by routine isolation, islets were handpicked). […] For long-term in vitro studies, the islets were cultured on extracellular matrix-coated plates derived from bovine corneal endothelial cells (Novamed Ltd., Jerusalem, Israel), allowing the cells to attach to the dishes and spread, preserving their functional integrity (7;35). Islets were cultured in CMRL 1066 medium containing 100 U/ml penicillin, 100 μg/ml streptomycin and 10% fetal calf serum (Invitrogen Corporation, Paisley, U.K.), hereafter referred to as culture medium. Two days after plating, when most islets were attached and began to flatten, the medium was changed to culture medium containing 5.5, 11.1 or 33.3 mM glucose. In some experiments, islets were additionally cultured with 5, 10 or 500 nM rh leptin (PeproTech, London, UK), 500 ng/ml rh IL-1Ra (R&D Systems Inc., Minneapolis, Minn.) or 50 nM small interfering RNA (siRNA) as described below.
RNA interference. RNAs of 21 nucleotides, designed to target human IL-1Ra (5′AUCUGCAGAGGCCUCCGCAtt3′/5′UGCGGAGGCCUCUGCAGAUtt3′) and scrambled siRNA were synthesized by Ambion (Austin, Tex.). siRNAs were transfected using SiPortAmine™ according to the manufacturer's instructions (Ambion).
Detection of IL-1Ra and IL-1β expressing cells. Pancreases from routine necropsies were immersion-fixed in formalin, followed by paraffin embedding. In parallel, isolated human were cultured in a suspension for 48 hours and exposed to 10 nM leptin or 33.3 mM glucose, islets were fixed in Bouin solution for 15 min, resuspended in 40 μl of 2% melted agarose in PBS (40° C.), followed by rapid centrifugation and paraffin embedding. Sections were deparaffinized, rehydrated and then incubated in methanol for 4 min. Human islets cultured on extracellular matrix for 4 days were washed in PBS, fixed in 4% paraformaldehyde (30 min, room temperature) followed by permeabilization with 0.5% triton X-100 (4 min, room temperature). Pancreas and islet sections and cultured cells were double-labeled for IL-1Ra or IL-1β and insulin, CD68, glucagon or somatostatin by 1 h of exposure to 10% bovine serum albumin followed by incubation (1 h, 37° C.) with biotinylated goat anti-IL-1Ra or mouse anti-IL-1β antibodies (R&D Systems Inc.). Detection was performed using cy3-(Jackson, ImMunoResearch Laboratories, West Grove, Pa.) or cy2-(Transduction Lab., Lexington, Ky.) conjugated streptavidin. […]

Regarding “Interleukin 1 receptor antagonist [IL-1Ra]”, the “baseline apoptosis (TUNEL-positive β-cells)” value in experiment [1] (5.5 mM glucose) was “did not significantly change baseline apoptosis”. For the same substance, the “glucose-induced β-cell apoptosis / DNA fragmentation (TUNEL)” value in experiment [1] (33.3 mM glucose, with IL-1Ra 500 ng/ml or PDTC 100 μM) was “protected the β-cells from apoptosis”.
Consider “leptin: rh leptin (PeproTech); protein encoded by the ob gene”, for which the “IL-1Ra expression in β-cells (double immunostaining)” value in experiment [2] (10 nM leptin, 48 hours) is reported as “decreased IL-1Ra expression in most β-cells”. Moreover, the figures for the “IL-1Ra released into the culture medium and IL-1Ra mRNA” value in experiment [2] (15 hours) and in experiment [2] (48 hours) were “increased” and “marked decrease”, respectively. Also, the “IL-1Ra protein (Western blot)” value in experiment [2] (leptin, 15-hour exposure) was “decreased IL-1Ra already after a 15-hour exposure”.
